Values after ≈ are worked out from the molar mass of the structure shown. “Also recorded” adds a separate entry of the source.
How the values were obtained:
[1] = Cytotoxicity, Neutral Red, BT-549; assay type: cell-based; settings: human, BT-549 breast ductal carcinoma cells, Na = not active up to 50 µg/mL
Method: (§1) In vitro cytotoxic activity was determined against five human cancer cell lines—malignant melanoma (SK-MEL), epidermal carcinoma oral (KB), ductal carcinoma breast (BT-549), ovary carcinoma (SKOV-3) and cervical (HeLa) cancer cells—and two non-cancerous kidney cell lines (LLC-PK1 and Vero). All cell lines were obtained from the American Type Culture Collection (ATCC, Rockville, MD, USA). Each assay was performed in 96-well tissue culture-treated microplates. The cells were seeded at a density of 25,000 cells/well and incubated for 24 h. Samples at different concentrations were added, and the cells were incubated again for 48 h. At the end of the incubation, the cell viability was determined using Neutral Red dye according to a modification of the procedure used by Borenfreund et al.. IC50 values were determined from dose–response curves of the percent growth inhibition against test concentrations. Doxorubicin was used as a positive control, while DMSO was used as the negative (vehicle) control.

[2] = Cytotoxicity, Neutral Red, Vero; assay type: cell-based; settings: monkey, Vero kidney fibroblasts, Na = not active up to 50 µg/mL
Method: as §1

[3] = Cytotoxicity, Neutral Red, LLC-PK1; assay type: cell-based; settings: pig, LLC-PK1 kidney epithelial cells, Na = not active up to 50 µg/mL
Method: as §1

[4] = Cytotoxicity, Neutral Red, KB; assay type: cell-based; settings: human, KB epidermal carcinoma (oral) cells, Na = not active up to 50 µg/mL
Method: as §1

[5] = Cytotoxicity, Neutral Red, SK-OV-3; assay type: cell-based; settings: human, SK-OV-3 ovary carcinoma cells, Na = not active up to 50 µg/mL
Method: as §1

[6] = Cytotoxicity, Neutral Red, HeLa; assay type: cell-based; settings: human, HeLa cervical cancer cells, Na = not active up to 50 µg/mL
Method: as §1

[7] = Cytotoxicity, Neutral Red, SK-MEL; assay type: cell-based; settings: human, SK-MEL malignant melanoma cells, Na = not active up to 50 µg/mL
Method: as §1

[8] = system: cannabinoid receptor 1 (CB1 receptor); settings: earlier studies; cited from earlier work
NF-κB = experiment: Luciferase reporter assay, NF-κB, HeLa; assay type: cell-based; settings: Homo sapiens; HeLa cells; inducer PMA; dash: not inhibited by more than 40% at 50 µmol/L
Method: (§2) Hela cells (or T98G cells) from ATCC were plated in white opaque 384-well plates at a density of 4300 cells/well in 30 µL of growth medium (DMEM with 10% FBS and 1% Pen/Strep). The next day, the medium was aspirated and replaced with DMEM containing 1% FBS. The cells were transfected with respective plasmids using X-tremeGENE HP DNA transfection reagent (Roche). After 24 h of transfection, the test agents were added to the transfected cells, followed 30 min later by an inducing agent: interleukin 6 (IL-6) for Stat3, TGF-β for Smad, m-wnt3a for Wnt and PMA for AP-1, NF-κB, E2F, Myc, ETS, Notch and Hedgehog. No inducer was added for FoXO and pTK. After 4 h or 6 h of induction, the cells were lysed via the addition of the One-Glo luciferase assay system (Promega; Madison, WI). The light output was detected in a GloMax®-Multi+ Detection System with Instinct® Software (Promega E 8051). This luciferase assay determines if the test agent is able to inhibit the activation of cancer-related signaling pathways. In the case of FoxO, the enhanced luciferase activity via the test agent was assessed.

Notch = experiment: Luciferase reporter assay, Notch, HeLa; assay type: cell-based; settings: Homo sapiens; HeLa cells; inducer PMA; dash: not inhibited by more than 40% at 50 µmol/L
Method: as §2

Wnt = experiment: Luciferase reporter assay, Wnt, HeLa; assay type: cell-based; settings: Homo sapiens; HeLa cells; inducer m-wnt3a; dash: not inhibited by more than 40% at 50 µmol/L
Method: as §2

E2F = experiment: Luciferase reporter assay, E2F, HeLa; assay type: cell-based, human; settings: Homo sapiens, HeLa, read-out: IC50, E2F (PMA)
Method: as §2

CB2 receptor = target: T1, CB2 receptor (Homo sapiens, UniProt P34972); experiment: Competitive radioligand binding assay, CB2; settings: for Percent displacement, CB2: 10 μM, [3H]-CP55,940; for Ki: * tested up to solubility limit, conc. at 33.3 μM and above precipitated, read-out: CB2 Ki ± SEM
T1 construct: expressed in transfected cells; host or cells: HEK293 (ATCC), stably transfected; membranes
T1 sequence (P34972 whole entry): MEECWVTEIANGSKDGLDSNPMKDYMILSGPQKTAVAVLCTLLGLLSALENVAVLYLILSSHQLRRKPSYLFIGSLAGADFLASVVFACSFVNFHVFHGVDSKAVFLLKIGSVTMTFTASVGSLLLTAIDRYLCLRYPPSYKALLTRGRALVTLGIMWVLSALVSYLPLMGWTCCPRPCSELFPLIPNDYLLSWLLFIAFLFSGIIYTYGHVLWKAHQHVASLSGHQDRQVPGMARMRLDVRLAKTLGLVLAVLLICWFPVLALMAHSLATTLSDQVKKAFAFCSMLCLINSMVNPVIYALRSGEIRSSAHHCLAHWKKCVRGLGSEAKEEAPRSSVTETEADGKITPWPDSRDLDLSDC
Method: (§3) HEK293 cells stably transfected with δ, κ and μ opioid subtypes were a generous gift from Roth Laboratories (University of North Carolina at Chapel Hill, N.C., USA). CB and opioid cells were maintained as previously described.
(§4) Membranes were purified by first washing the cells with cold PBS and scraping the cells into cold 50 mM Tris-HCl, pH 7.4 buffer, which was centrifuged at 5200× g for 10 min at 4 °C; next, the supernatant was discarded, and the pellet was washed with more Tris-HCl buffer, homogenized via a Sonic Dismembrator (Fisher Scientific, Pittsburgh, PA, USA) and then centrifuged at 24,000× g for 40 min at 4 °C. Finally, the pellet was re-suspended in cold 50 mM Tris-HCl buffer, aliquoted into 2 mL vials and stored at −80 °C. The total membrane protein concentration was measured using a Pierce BCA Protein Assay Kit (Thermo Scientific, Rockford, IL, USA) as per the manufacturer’s protocol.
(§5) Cannabinoid and opioid competitive radioligand binding assays were performed as previously described. Saturation experiments were performed for all the receptors to determine the receptor concentration and radioligand dissociation constant (Kd) for the membrane. Percent displacements were evaluated for all the cannabinoid and opioid subtypes with a triplicate of a fixed concentration (10 µg/mL for extracts and fractions and 10 μM for purified compounds). […] Control/test compounds were dissolved in DMSO at 10 μg/mL for extracts and fractions and 10 μM for purified compounds. […] The percent displacement was calculated to represent the ability of the samples to displace the radioligand binding for a given cannabinoid or opioid receptor subtype.
(§6) The percent displacement was calculated as follows: 100−binding of compound−nonspecific binding/specific binding×100
(§7) The competitive binding assays were performed using 12 serial dilutions of each compound ranging from 0.002 to 300 μM (control compounds were serially diluted from 10 μM to 0.06 nM). The cannabinoid assays were incubated for 90 min at 37 °C with gentle agitation. The opioid assays were incubated for 60 min at room temperature. Bound radioligands were collected on GF/C (cannabinoid) or GF/B plates (opioid) and washed 10 times with ice-cold 50 mM Tris-HCl (pH 7.4)/0.1% BSA (cannabinoid) or ice-cold 50 mM Tris-HCl (pH 7.4) (opioid). Radiodetection was measured with 50 µL (cannabinoid) or 25 µL (opioid) of MicroScint^TM-20 on a TopCount NXT HTS Microplate Scintillation Counter (PerkinElmer, Waltham, MA, USA). The IC50 and Ki values were calculated via a non-linear curve fit model using GraphPad Prism 5.0 software (GraphPad Software, Inc., San Diego, CA, USA). Each compound was tested in triplicate unless stated otherwise.

Hedgehog = experiment: Luciferase reporter assay, Hedgehog, HeLa; assay type: cell-based, human; settings: Homo sapiens; HeLa cells; inducer PMA; dash: not inhibited by more than 40% at 50 µmol/L
Method: as §2

Stat3 = experiment: Luciferase reporter assay, Stat3, HeLa; assay type: cell-based, human; settings: Homo sapiens; HeLa cells; inducer IL6; dash: not inhibited by more than 40% at 50 µmol/L
Method: as §2

δ opioid receptor = target: T2, δ opioid receptor (Homo sapiens, UniProt P41143); experiment: Competitive radioligand binding assay, δ opioid; settings: for inhibition at 10 µM: [3H]-enkephalin (DPDPE), read-out: Percent displacement, Δ; for Ki: NA = not active, read-out: Δ Ki ± SEM
T2 construct: host or cells: HEK293, stably transfected; membranes
T2 sequence (P41143 whole entry): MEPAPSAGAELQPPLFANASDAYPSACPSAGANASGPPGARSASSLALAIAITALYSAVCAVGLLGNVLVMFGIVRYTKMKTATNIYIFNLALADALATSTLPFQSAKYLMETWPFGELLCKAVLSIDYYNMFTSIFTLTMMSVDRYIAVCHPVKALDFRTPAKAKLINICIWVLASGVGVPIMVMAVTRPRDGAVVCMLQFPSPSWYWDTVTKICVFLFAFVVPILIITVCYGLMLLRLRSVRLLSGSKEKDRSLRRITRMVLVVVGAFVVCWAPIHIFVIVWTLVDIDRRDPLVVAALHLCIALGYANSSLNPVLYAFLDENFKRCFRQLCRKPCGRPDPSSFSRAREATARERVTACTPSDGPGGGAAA
Method: as §3, §4, §5, §6, §7

ETS = experiment: Luciferase reporter assay, ETS, HeLa; assay type: cell-based, human; settings: Homo sapiens; HeLa cells; inducer PMA; dash: not inhibited by more than 40% at 50 µmol/L
Method: as §2

FoxO = experiment: Luciferase reporter assay, FoxO, HeLa; assay type: cell-based; settings: Homo sapiens; HeLa cells; no inducer; dash: no activity detected; read-out: IC50, FoxO (None)
Method: as §2

Myc = experiment: Luciferase reporter assay, Myc, HeLa; assay type: cell-based; settings: Homo sapiens; HeLa cells; inducer PMA; dash: not inhibited by more than 40% at 50 µmol/L
Method: as §2

CB1 receptor = target: T3, CB1 receptor (Homo sapiens, UniProt P21554); experiment: Competitive radioligand binding assay, CB1; settings: for Percent displacement, CB1: 10 μM, [3H]-CP55,940
T3 construct: expressed in transfected cells; host or cells: HEK293 (ATCC), stably transfected; membranes
T3 sequence (P21554 whole entry): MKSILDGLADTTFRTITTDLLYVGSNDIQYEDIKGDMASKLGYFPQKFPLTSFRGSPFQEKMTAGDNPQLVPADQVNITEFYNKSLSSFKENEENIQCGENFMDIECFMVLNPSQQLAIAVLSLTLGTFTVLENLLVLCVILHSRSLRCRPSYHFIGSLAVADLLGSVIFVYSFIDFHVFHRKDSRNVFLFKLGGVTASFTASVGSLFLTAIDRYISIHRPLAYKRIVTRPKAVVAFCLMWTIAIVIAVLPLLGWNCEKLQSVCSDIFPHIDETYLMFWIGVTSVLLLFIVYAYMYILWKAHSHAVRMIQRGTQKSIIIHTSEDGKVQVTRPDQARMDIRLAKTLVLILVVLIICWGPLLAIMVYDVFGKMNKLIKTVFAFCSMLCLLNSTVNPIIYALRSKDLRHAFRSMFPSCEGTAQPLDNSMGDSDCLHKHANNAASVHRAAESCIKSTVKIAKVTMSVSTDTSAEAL
Method: as §3, §4, §5, §6, §7

μ opioid receptor = target: T4, μ opioid receptor (Homo sapiens, UniProt P35372); experiment: biochemical; assay type: binding; settings: for Percent displacement, µ: 10 μM, [3H]-DAMGO; for Ki: NA = not active, read-out: μ Ki ± SEM
T4 construct: host or cells: HEK293, stably transfected; membranes
T4 sequence (P35372 whole entry): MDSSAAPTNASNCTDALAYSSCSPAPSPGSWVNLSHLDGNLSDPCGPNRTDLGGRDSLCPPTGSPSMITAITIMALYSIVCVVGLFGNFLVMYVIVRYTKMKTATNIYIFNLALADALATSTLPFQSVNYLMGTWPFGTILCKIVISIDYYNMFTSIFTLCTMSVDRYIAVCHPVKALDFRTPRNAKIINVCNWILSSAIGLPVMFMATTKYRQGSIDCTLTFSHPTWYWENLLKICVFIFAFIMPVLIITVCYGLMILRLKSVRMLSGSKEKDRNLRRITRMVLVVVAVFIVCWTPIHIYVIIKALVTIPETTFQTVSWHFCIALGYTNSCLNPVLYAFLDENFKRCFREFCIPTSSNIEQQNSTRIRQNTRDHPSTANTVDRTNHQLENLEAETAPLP
Method: as §3, §4, §5, §6, §7

AP-1 = experiment: Luciferase reporter assay, AP-1, HeLa; assay type: cell-based, human; settings: Homo sapiens, read-out: IC50, Ap-1 (PMA)
Method: as §2

Smad2/3 = experiment: Luciferase reporter assay, Smad2/3, HeLa; assay type: cell-based, human; settings: Homo sapiens; HeLa cells; inducer TGF-beta; dash: not inhibited by more than 40% at 50 µmol/L
Method: as §2

[9] = system: SK-MEL, KB, BT-549, SK-OV-3, HeLa, LLC-PK1 and Vero cells; experiment: Cytotoxicity, summary over the cell line panel; assay type: cell-based; settings: highest tested concentration of 50 µg/mL; most of the cells
Method: as §1

[10] = Solubility in aqueous assay buffer; settings: aqueous buffer of the radioligand binding assay

Row | Structure (SMILES) | IC50 at 48 h [1] | IC50 at 48 h [4] | IC50 at 48 h [7] | IC50 (NF-κB) | IC50 (Notch) | IC50 (Wnt) | IC50 (E2F) | Percent displacement, CB2 (CB2 receptor) | IC50 (Hedgehog) | IC50 (Stat3) | inhibition at 10 µM (δ opioid receptor) | IC50 (ETS) | IC50 (FoxO) | IC50 (Myc) | Percent displacement, CB1 (CB1 receptor) | Percent displacement, µ (μ opioid receptor) | IC50 (AP-1) | IC50 (Smad2/3) | Cytotoxicity (in words) [9] | Ki (CB2 receptor) | other results
1 | COc1cccc2c1C(=O)c1c(O)c3c(c(O)c1C2=O)C[C@@](O)(C(=O)CO)C[C@@H]3O[C@H]1C[C@H](N)[C@H](O)[C@H](C)O1 [Doxorubicin, reference compound] | 2.4 µg/mL (≈ 4.42 µM) | 2.4 µg/mL (≈ 4.42 µM) | 2.2 µg/mL (≈ 4.05 µM) |  |  |  |  |  |  |  |  |  |  |  |  |  |  |  |  |  | IC50 at 48 h [2]: > 5 µg/mL; IC50 at 48 h [3]: 1.1 µg/mL (≈ 2.02 µM); IC50 at 48 h [5]: 2 µg/mL (≈ 3.68 µM); IC50 at 48 h [6]: 4.3 µg/mL (≈ 7.91 µM)
2 | C[C@H]1CC[C@H]2[C@H](C1)c1c(O)cc(/C=C/c3ccccc3)cc1OC2(C)C [compound 1, machaeriol A] |  |  |  | 10.7 µM | 7 µM | 11.9 µM | 11 µM | 24.4% | 8.2 µM | 14 µM | 1.8% | 8.5 µM | > 50 µM | 8.5 µM | 18.4% | 52.9% | 12 µM | 13.7 µM |  |  | Affinity for CB1 (in words) [8]: insignificant affinity; also recorded: did not show any affinity
3 | C[C@H]1CC[C@H]2[C@H](C1)c1c(O)cc(-c3cc4ccccc4o3)cc1OC2(C)C [compound 2, machaeriol B] |  |  | > 50 µg/mL | 8.4 µM | 7.3 µM | 9.1 µM | 8.8 µM | 13.7% | 6.9 µM | 11.3 µM | 61.7% | 9.5 µM | > 50 µM | 7.7 µM |  | 37.6% | 10 µM | 11 µM | inactive |  | Affinity for CB1 (in words) [8]: insignificant affinity; also recorded: did not show any affinity
4 | C[C@@H]1C[C@@H]2c3c(O)cc(-c4cc5ccccc5o4)cc3OC(C)(C)[C@H]2C[C@H]1O [compound 4, machaeriol D] |  |  |  | 20 µM | 25 µM | 20 µM | 24 µM | 81.5% | 21 µM | 22 µM | 28.2% | 25 µM | > 50 µM | 18 µM | 4.5% | 16.8% | 21 µM | 11 µM |  | > 1.3 µM | Affinity for CB1 receptor (in words) (CB1 receptor; receptor displacement assay): little or no affinity
5 | C=C(C)[C@H]1CC[C@H](C)C[C@@H]1c1c(O)cc(/C=C/c2ccccc2)cc1O [compound 5, machaeridiol A] | > 50 µg/mL | > 50 µg/mL | > 50 µg/mL | 8.1 µM | > 50 µM | 3.5 µM | 10 µM | 65.4% | 11 µM | 10.5 µM | 43.3% | 11.8 µM | > 50 µM | 9.5 µM | 7.8% | 45.6% | 11 µM | 4.5 µM | inactive | > 1.77 µM | Ki (δ opioid receptor): 9.41 ± 1.02 µM; solubility [10]: < 33.3 µM; Ki (μ opioid receptor): 16.8 ± 3.31 µM
6 | C=C(C)[C@H]1CC[C@H](C)C[C@@H]1c1c(O)cc(-c2cc3ccccc3o2)cc1O [compound 7, machaeridiol C] | 47 µg/mL (≈ 130 µM) | > 50 µg/mL | > 50 µg/mL | 2 µM | 12 µM | > 50 µM | 8.7 µM | 57.9% | 8.8 µM | 11.2 µM | 26.6% | 7.2 µM | > 50 µM | 6.8 µM |  | 31.7% | 6.7 µM | 2.5 µM | inactive | > 1.11 µM | Δ pKi (δ opioid receptor): 4.91; Ki (δ opioid receptor): 12.2 ± 1.19 µM; solubility [10]: < 33.3 µM; Ki (μ opioid receptor): 4.01 ± 0.65 µM

From article PMC10361207, “Cannabinoid and Opioid Receptor Affinity and Modulation of Cancer-Related Signaling Pathways of Machaeriols and Machaeridiols from Machaerium Pers” (Molecules, 2023)
